{"source": "patent US20210024482A1", "about": "“Novel Group of STAT3 Pathway Inhibitors and Cancer Stem Cell Pathway Inhibitors” (Sumitomo Dainippon Pharma Oncology, Inc., priority 2007, published 2021)", "key": {"[1]": {"tested_on": "Hoechst side population cells", "assay": "Annexin V staining of Hoechst side population cells", "type": "cell-based", "conditions": "FIG. 9A", "protocol": "Cells treated with or without compound were harvested at 5 hours post treatment for Annexin-V staining. Collected cells were washed with PBS and resuspended in Annexin-V-FITC containing buffer and stained according to manufactures directions (Roche). Annexin-V positive cells were determined by Flow cytometry.\nCells treated with indicated compound for an indicated time were either fixed in 4% formaldehyde or cold methanol for the detection of Annexin V, cleaved caspase 3, or stat3, respectively. Coverslips were air dried and rehydrated in PBS at room temperature for 10 min. Samples were then incubated in blocking buffer (PBS, 5% FBS) for 10 min at room temperature in a humid chamber. Cells were incubated overnight at 4° C. with primary antibodies. After washing, the cells were incubated for 1 hour at room temperature with a 1:500 dilution of FITC conjugated anti-rabbit antibody. Images were captured with a Nikon TE200 microscope equipped with epifluorescence and a SPOT mosaic CCD camerapolyclonal Anti-cleaved caspase 3 antibody (1:100) was obtained from Cell Signaling Technology, Danvers, Mass. Annexin-V-FITC was obtained from Roche, Penzberg, Germany. Polyclonal anti-Stat3 antibody was obtained from Santa Cruz.\nThe Hoechst side population cells were treated with compound 401 and the mode of cell death was accessed by Annexin V (an early marker for apoptosis) staining."}, "Stat3 [2]": {"tested_on": "Stat3", "assay": "Stat3 DNA binding assay (EMSA) with HeLa nuclear extracts", "type": "biochemical", "conditions": "HeLa nuclear extract, FIG. 7A/7B", "protocol": "Electrophoretic mobility shift assay (EMSA) was performed as described by the manufacturer (Li-Cor Biosciences, Lincoln, Nebr.). Briefly, nuclear extracts were made from HeLa cells using the NucBuster Protein Extraction Kit as described by the manufacturer (EMD Biosciences, San Diego, Calif.). 5 μg of nuclear extract was pre-incubated with the indicated dose of indicated compound for 30 minutes prior to a 15-minute incubation with the IR700-labeled consensus Stat3 oligonucleotide. Samples were then electrophoresed on a polyacrylamide gel and directly scanned using the Odyssey infrared imaging system (Li-Cor Biosciences). For the enzyme-linked immunosorbent assay (ELISA), 5 μg of nuclear extract was preincubated with indicated concentration of indicated compound for 30 minutes prior to the addition of biotinylated oligo (5′-Biotin-[…]-3′, SEQ ID NO. 1). Stat3-DNA complexes were then captured on streptavidin coated 96 well plates (Pierce, Rockford, Ill.). Bound complexes were then incubated with Stat3 polyclonal antibody (Santa Cruz Biotechnology, Santa Cruz, Calif.) followed by anti-rabbit HRP conjugated secondary antibody (GE Healthcare, Pittsburgh, Pa.). Bound antibody was then visualized by addition of TMB substrate (Pierce) and absorbance measured at 450 nm,\nNuclear extracts from HeLa cells, which contain constitutively activated Stat3 as detected by phoshporylation at the tyrosine 705 residue, were used to perform Stat3 EMSAs to monitor Stat3 DNA binding activity. Nuclear extracts were incubated with indicated compound prior to incubation with IR700-labeled Stat3 consensus oligonucleotide. Binding of Stat3 to the oligonucleotide was monitored by gel electrophoresis and detection using a LiCor Odyssey infrared scanner."}, "Stat3 [3]": {"tested_on": "Stat3", "assay": "Stat3-luciferase (Stat3-Luc) reporter assay, OSM-stimulated HeLa cells", "type": "cell-based", "conditions": "FIG. 6", "protocol": "HeLa Cells were co-transfected with Stat3-luciferase (Stat3-Luc) reporter vector (Panomics, Fremont, Calif.) and Renilla luciferase (Promega, Madison, Wis.) using Lipofectamine 2000 as described by the manufacturer (Invitrogen). Following transfection, cells were maintained in medium containing 0.5% FBS for 24 hours. Cells were then treated with the indicated compound for 30 minutes prior to the addition of 25 ng/ml oncostatin M (OSM) (R&D Systems, Minneapolis, Minn.) to the medium. 6 hours following OSM addition, cells were harvested and levels of firefly and renilla luciferase were measured using the Dual-Glo Luciferase Assay System as described by the manufacturer (Promega).\nCompounds were tested for their ability to inhibit Stat3 transcription activation activity in cells using a Stat3-luciferase (Stat3-luc) reporter construct. Cells transfected with Stat3-luc were cultured in reduced serum medium prior to addition of indicated compound for 30 minutes. Cells were then stimulated with 25 ng/ml oncostatin M (OSM) for 6 hours followed by detection of Stat3-luc reporter activity. […] AG490, a known inhibitor of the Jak-Stat pathway, was included as a positive control for Stat3 inhibition."}, "CD34^+ BM Myeloid": {"tested_on": "CD34^+ BM Myeloid", "assay": "Colony formation assay, CD34+ bone marrow myeloid lineage", "type": "cell-based", "conditions": "normal cells, 6 hours incubation", "text": "In a similar fashion to PMBCs, CD34^+ bone marrow hematopoietic stem cells were spared when treated with compound 401."}, "SW480 Hoechst SP cells": {"tested_on": "SW480 Hoechst SP cells", "assay": "MTT cell viability, SW480 Hoechst side population CSCs", "type": "cell-based", "conditions": "FIG. 8B", "protocol": "To identify and isolate side population (SP) and non-SP fractions, SW480 cells were removed from the culture dish with trypsin and EDTA, pelleted by centrifugation, washed with phosphate-buffered saline (PBS), and resuspended at 37° C. in Dulbecco's modified Eagle's medium (DMEM) containing 2% FBS and 1 mM HEPES. The cells were then labeled with Hoechst 33342 (Invitrogen) at a concentration of 5 μg/mL. The labeled cells were incubated for 120 minutes at 37° C., either alone or with 50 μM verapamil (Sigma-Aldrich, St. Louis). After staining, the cells were suspended in Hanks' balanced saline solution (HBSS; Invitrogen) containing 2% FBS and 1 mM HEPES, passed a through 40 μm mesh filter, and maintained at 4° C. until flow cytometry analysis. The Hoechst dye was excited at 350 nm, and its fluorescence was measured at two wavelengths using a 450 DF10 (450/20 nm band-pass filter) and a 675LP (675 nm long-pass edge filter) optical filter. The gating on forward and side scatter was not stringent, and only debris was excluded,\nFor 3-(4,5 dimethylthiazol-2-yl)-2,5-diphenyltetrazolium (MTT) (Sigma-Aldrich, St. Louis, Mo.) analysis, cells were plated in 96 well plates at 10,000 cells per well. 24 hours after plating, compound was added to cells at indicated doses. 22 hours following compound addition, MTT was added to each well (0.5 mg/ml, final concentration) and plates were incubated for an additional 2 hours at 37° C. Medium was then aspirated and the formazan product was solubilized in 100 μl of isopropyl alcohol. The absorbance of each well was measured at 570 nm using a microplate reader.\nThe IC50 of compound 401 against the Hoechst side population was accessed in MTT assays and was compared to the IC50 against the non-side population.\nIn addition, we tested the activities of several other compounds against cancer stem cells. Briefly, freshly isolated CSCs (SW480 Hoechst SP cells or CD44^high FaDu cells) were exposed to a dose range (30-0.117 μM) of compound for 48 h before examining cell viability by MTT assay. IC50s were estimated by plotting the percentage of surviving cells. As shown in Table 4 and Table 5, compounds of present invention can target cancer stem cells."}}, "note": "“Also recorded” adds a separate entry of the source."}
{"smiles": "CC(=O)c1cc2c(o1)C(=O)c1ccccc1C2=O", "note": "[Compound 401, 2-acetylnaphtho[2,3-b]furan-4,9-dione]", "values": [{"measurement": "mode of cell death by Annexin V staining", "setting": "[1]", "result": "the dying cells are Annexin V positive"}, {"measurement": "inhibition of Stat3 DNA binding activity", "setting": "Stat3 [2]", "result": "Dose dependent inhibition of Stat3 DNA binding; also recorded: can inhibit Stat3's DNA binding activity"}, {"measurement": "inhibition of OSM-stimulated Stat3 reporter activity", "setting": "Stat3 [3]", "result": "inhibited OSM-stimulated Stat3 reporter activity"}, {"measurement": "IC50", "setting": "CD34^+ BM Myeloid", "result": "> 30", "unit": "µM"}, {"measurement": "sensitivity of side population compared to non-side population", "setting": "SW480 Hoechst SP cells", "result": "the side population is as sensitive as the non-side population"}]}
